Where “and” joins values, the source holds several entries; their conditions need not be identical. Identical values can stand only once. Toxic doses and inconclusive results are not listed. The calls were made as follows: active = survival T/C of 150% or more; inactive = T/C below 125% in these data.
Tested on: P388 leukemia ip, CD2F1 mice, survival T/C
Experiment: NCI In Vivo Anticancer Drug Screen. Data for tumor model P388 Leukemia (intraperitoneal) in CD2F1 (CDF1) mice
Details: endpoint: median survival time, higher = longer survival
Summary of the method: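 Mice carrying the transplanted tumor received test compound or vehicle. Survival was recorded in each group, and the value is the treated-group measurement divided by that of the vehicle-treated control group.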

[1] = dose: 50.0 mg/kg/injection, schedule: Q01DX005 (ip), vehicle: saline with Tween-80
[2] = dose: 100.0 mg/kg/injection, schedule: Q01DX005 (ip), vehicle: saline with Tween-80
[3] = dose: 100.0 mg/kg/injection, schedule: Q01DX001 (ip), vehicle: saline
[4] = dose: 50.0 mg/kg/injection, schedule: Q01DX005 (ip), vehicle: Klucel (hydroxypropylcellulose) (HPC)
[5] = dose: 100.0 mg/kg/injection, schedule: Q01DX005 (ip), vehicle: Klucel (hydroxypropylcellulose) (HPC)
[6] = dose: 200.0 mg/kg/injection, schedule: Q01DX005 (ip), vehicle: Klucel (hydroxypropylcellulose) (HPC)
[7] = dose: 25.0 mg/kg/injection, schedule: Q01DX005 (ip), vehicle: Klucel (hydroxypropylcellulose) (HPC)
[8] = dose: 200.0 mg/kg/injection, schedule: Q01DX005 (ip), vehicle: saline with Tween-80

Measured: T/C

C=CCOc1c(C=O)cccc1OC
inactive: dose: 25.0 mg/kg/injection, schedule: Q01DX005 (ip), vehicle: saline with Tween-80 101 % of control | [1] 100 % of control | [2] 108 % of control

CC(=O)CN1CCSC1=N
inactive: [3] 97 % of control

NC(=S)c1ccccc1[N+](=O)[O-]
inactive: dose: 25.0 mg/kg/injection, schedule: Q01DX001 (ip), vehicle: saline 104 % of control | dose: 25.0 mg/kg/injection, schedule: Q01DX001 (ip), vehicle: suspension in saline 101 % of control | dose: 50.0 mg/kg/injection, schedule: Q01DX001 (ip), vehicle: saline 104 % of control | dose: 50.0 mg/kg/injection, schedule: Q01DX001 (ip), vehicle: suspension in saline 100 % of control | [3] 101 % of control and 104 % of control | dose: 100.0 mg/kg/injection, schedule: Q01DX001 (ip), vehicle: suspension in saline 102 % of control | dose: 200.0 mg/kg/injection, schedule: Q01DX001 (ip), vehicle: suspension in saline 101 % of control

C=CCc1cn(C2CC(OC(=O)c3ccc(Cl)cc3)C(COC(=O)c3ccc(Cl)cc3)O2)c(=O)[nH]c1=O (stereo unspecified)
inactive: [4] 98 % of control | [5] 98 % of control | [6] 91 % of control

Cc1cccc(C)c1NC(=S)NC(=O)c1cccc(Cl)c1
inactive: [7] 94 % of control | [4] 92 % of control | [5] 97 % of control

Nc1ccc(O)c2c1C(=O)c1ccccc1C2=O
inactive: [1] 93 % of control | [2] 111 % of control | [8] 101 % of control

CC(C)(CO)[C@@H](O)C(=O)NCCC(=O)O
inactive: dose: 50.0 mg/kg/injection, schedule: Q01DX009 (ip), vehicle: saline 108 % of control | dose: 100.0 mg/kg/injection, schedule: Q01DX009 (ip), vehicle: saline 113 % of control | dose: 200.0 mg/kg/injection, schedule: Q01DX009 (ip), vehicle: saline 106 % of control

O=[N+]([O-])c1cccc(C(Nc2nncs2)Nc2nncs2)c1
inactive: [4] 106 % of control and 96 % of control | [5] 95 % of control | [6] 94 % of control | dose: 400.0 mg/kg/injection, schedule: Q01DX005 (ip), vehicle: Klucel (hydroxypropylcellulose) (HPC) 96 % of control

O=C(Nc1ccc(S(=O)(=O)Nc2nccs2)cc1)c1ccncc1
inactive: [1] 102 % of control | [2] 102 % of control | [8] 102 % of control

O=C(CN1CCOCC1)Nc1cccc(C(F)(F)F)c1
inactive: dose: 100.0 mg/kg/injection, schedule: Q01DX009 (ip), vehicle: saline with Tween-80 110 % of control | dose: 200.0 mg/kg/injection, schedule: Q01DX009 (ip), vehicle: saline with Tween-80 100 % of control | dose: 400.0 mg/kg/injection, schedule: Q01DX009 (ip), vehicle: saline with Tween-80 110 % of control

CC1=C(C(=O)O)CCC1(C)C
inactive: dose: 100.0 mg/kg/injection, schedule: Q04DX002 (ip), vehicle: saline with Tween-80 98 % of control | dose: 200.0 mg/kg/injection, schedule: Q04DX002 (ip), vehicle: saline with Tween-80 101 % of control | dose: 400.0 mg/kg/injection, schedule: Q04DX002 (ip), vehicle: saline with Tween-80 104 % of control

CNC(=O)c1cccc2ccc[n+](C)c12
inactive: dose: 0.62 mg/kg/injection, schedule: Q04DX002 (ip), vehicle: saline 107 % of control | dose: 1.25 mg/kg/injection, schedule: Q04DX002 (ip), vehicle: saline 109 % of control | dose: 2.5 mg/kg/injection, schedule: Q04DX002 (ip), vehicle: saline 108 % of control

CCOC(=O)c1nn(C)c2oc(=O)ccc12
inactive: [7] 106 % of control | [4] 108 % of control | [5] 104 % of control | [6] 104 % of control

CNc1nc(N(C)C)nc(N(C)C)n1
inactive: dose: 6.25 mg/kg/injection, schedule: Q01DX009 (ip), vehicle: water 105 % of control and 96 % of control | dose: 12.5 mg/kg/injection, schedule: Q01DX009 (ip), vehicle: water 105 % of control | dose: 16.0 mg/kg/injection, schedule: Q03HX008 (ip), vehicle: water 102 % of control | dose: 16.0 mg/kg/injection, schedule: Q03HX016 (ip), vehicle: water 96 % of control | dose: 16.0 mg/kg/injection, schedule: Q03HX024 (ip), vehicle: water 96 % of control | dose: 25.0 mg/kg/injection, schedule: Q01DX009 (ip), vehicle: water 105 % of control | dose: 30.0 mg/kg/injection, schedule: Q01DX009 (ip), vehicle: water 104 % of control | dose: 32.0 mg/kg/injection, schedule: Q01DX005 (ip), vehicle: water 99 % of control | dose: 32.0 mg/kg/injection, schedule: Q01DX009 (ip), vehicle: water 86 % of control | dose: 32.0 mg/kg/injection, schedule: Q01DX009 (oral), vehicle: water 110 % of control | dose: 32.0 mg/kg/injection, schedule: Q01DX009 (sc), vehicle: water 106 % of control | dose: 32.0 mg/kg/injection, schedule: Q03HX008 (ip), vehicle: water 103 % of control | dose: 32.0 mg/kg/injection, schedule: Q03HX016 (ip), vehicle: water 100 % of control | dose: 32.0 mg/kg/injection, schedule: Q03HX024 (ip), vehicle: water 114 % of control | dose: 44.0 mg/kg/injection, schedule: Q01DX009 (ip), vehicle: water 104 % of control | dose: 50.0 mg/kg/injection, schedule: Q01DX009 (ip), vehicle: water 112 % of control | dose: 64.0 mg/kg/injection, schedule: Q01DX001 (ip), vehicle: water 102 % of control | dose: 64.0 mg/kg/injection, schedule: Q01DX001 (oral), vehicle: water 103 % of control | dose: 64.0 mg/kg/injection, schedule: Q01DX005 (ip), vehicle: water 109 % of control | dose: 64.0 mg/kg/injection, schedule: Q01DX009 (ip), vehicle: water 93 % of control | dose: 64.0 mg/kg/injection, schedule: Q01DX009 (oral), vehicle: water 115 % of control | dose: 64.0 mg/kg/injection, schedule: Q01DX009 (sc), vehicle: water 117 % of control | dose: 64.0 mg/kg/injection, schedule: Q04DX003 (ip), vehicle: water 105 % of control | dose: 64.0 mg/kg/injection, schedule: Q08DX002 (ip), vehicle: water 103 % of control | dose: 67.0 mg/kg/injection, schedule: Q01DX009 (ip), vehicle: water 116 % of control | dose: 128.0 mg/kg/injection, schedule: Q01DX001 (ip), vehicle: water 102 % of control | dose: 128.0 mg/kg/injection, schedule: Q01DX001 (oral), vehicle: water 101 % of control | dose: 128.0 mg/kg/injection, schedule: Q01DX005 (ip), vehicle: water 99 % of control | dose: 128.0 mg/kg/injection, schedule: Q01DX009 (oral), vehicle: water 96 % of control | dose: 128.0 mg/kg/injection, schedule: Q01DX009 (sc), vehicle: water 86 % of control | dose: 128.0 mg/kg/injection, schedule: Q04DX003 (ip), vehicle: water 112 % of control | dose: 128.0 mg/kg/injection, schedule: Q08DX002 (ip), vehicle: water 114 % of control | dose: 256.0 mg/kg/injection, schedule: Q01DX001 (oral), vehicle: water 100 % of control

— PubChem BioAssay AID330 (DTP/NCI, 2004)
